Data from patent publication US9872873B2, “Process for preparing stable pharmaceutical compositions of compounds susceptible to hydrolysis” (Fresenius Kabi Oncology Limited, priority 2012, dated 2018).

Columns and labels:
[1] = Stability profile of Decitabine pre-lyophilized bulk solution at 25° C. in water; format: physicochemical
Protocol: The manufacture of a freeze dried product necessitates that the product is usually first manufactured as a solution, filtered to sterilize, aseptically filled, and finally lyophilized to remove the solvents. All of these unit operations require that the product be held in the solution state for a defined period of time, at least for 4 hours. A batch of Decitabine bulk solution was prepared by dissolving the drug (5 mg/mL) and buffer (Potassium dihydrogen phosphate 6.8 mg/mL, sodium hydroxide 1.16 mg/mL) in water and at room temperature.

[2] = Solution stability of Decitabine bulk solution in Water:Acetonitrile 80:20% v/v at −5 ± 2° C.; format: physicochemical
[3] = cited from earlier work
[4] = Stability profile of Decitabine pre-lyophilized bulk solution at −1° C. in water; format: physicochemical
[5] = Freezing point of bulk solution of Decitabine using various solvents and buffers; format: physicochemical
Source text: The advantages of using these non-aqueous solvent systems include: increased drug wetting or solubility, increased sublimation rates, increased pre-dried bulk solution or dried product stability, decreased reconstitution time, and enhancement of sterility assurance of the pre-dried bulk solution. A pre-requisite for such a solvent to be utilized efficiently for depression of freezing point of water would be to have satisfactory drug solubility in solvent system. […] Various solvents were evaluated for intended purpose e.g. Dimethylsulfoxide (1-30%), Ethanol (1-30%), Tertiary-butanol (1-30%), and their combinations were used in the range of 1-30% and thus were evaluated for their effect in decreasing the freezing point of bulk solution as summarized in Table VII. Although Ethanol decreased the freezing point of the drug solution and ensured drug solubility at low temperature, it was not suitable as a solvent for lyophilization as lyophilized cake could not be formed using this solvent system. Dimethyl sulphoxide is not suitable solvent for Lyophilization as it is difficult to remove during lyophilization.

[6] = Initial (5 minutes after drug dissolution)

## Nc1ncn([C@H]2C[C@H](O)[C@@H](CO)O2)c(=O)n1 [Decitabine, 5-aza-2′ deoxycytidine]
[1]; 2 h
  Related Substances: 5-Azacytosine: 0.05%
  Related Substances: H-unk (Highest Unknown Impurity): 12.42%
  Related Substances: Six member Decitabine: 0.34%
  Related Substances: Total: 25.44%
  Related Substances: α-Decitabine: 0.00%
[1]; 4 h
  Related Substances: 5-Azacytosine: 0.05%
  Related Substances: H-unk (Highest Unknown Impurity): 14.14%
  Related Substances: Six member Decitabine: 0.81%
  Related Substances: Total: 31.46%
  Related Substances: α-Decitabine: 0.00%
[1]; [6]
  Related Substances: 5-Azacytosine: 0.00%
  Related Substances: H-unk (Highest Unknown Impurity): 10.89%
  Related Substances: Six member Decitabine: 0.05%
  Related Substances: Total: 12.12%
  Related Substances: α-Decitabine: 0.00%
[2]; 4 hrs
  Related Substances: 5-Azacytosine: 0.02%
  Related Substances: H-unk (Highest Unknown Impurity): 0.03%
  Related Substances: SP4: 0.28%
  Related Substances: SP6: 0.29%
  Related Substances: Total: 0.67%
[2]; Initial
  Related Substances: 5-Azacytosine: 0.01%
  Related Substances: H-unk (Highest Unknown Impurity): 0.03%
  Related Substances: SP4: 0.04%
  Related Substances: SP6: 0.05%
  Related Substances: Total: 0.17%
[3]; prepared with cold (2° C.-8° C.) infusion fluids, stored at 2° C.-8° C.
  Maximum storage time of diluted solution until administration: ≤ 7 h
[3]; reconstituted with Sterile Water for Injection
  Time of use after reconstitution without cold infusion fluids: ≤ 15 min
[4]; 1 hr
  Related Substances: 5-Azacytosine: 0.03%
  Related Substances: H-unk (Highest Unknown Impurity): 0.05%
  Related Substances: SP1: 0.03%
  Related Substances: SP2: 0.01%
  Related Substances: SP3: 0.06%
  Related Substances: SP4: 0.85%
  Related Substances: SP6: 0.07%
  Related Substances: Total: 1.25%
  Related Substances: α-Decitabine: 0.02%
[4]; 2 hr
  Related Substances: 5-Azacytosine: 0.04%
  Related Substances: H-unk (Highest Unknown Impurity): 0.05%
  Related Substances: SP1: 0.03%
  Related Substances: SP2: 0.02%
  Related Substances: SP3: 0.05%
  Related Substances: SP4: 1.50%
  Related Substances: SP6: 0.22%
  Related Substances: Total: 2.06%
  Related Substances: α-Decitabine: 0.02%
[4]; 3 hr
  Related Substances: 5-Azacytosine: 0.03%
  Related Substances: H-unk (Highest Unknown Impurity): 0.05%
  Related Substances: SP1: 0.03%
  Related Substances: SP2: 0.02%
  Related Substances: SP3: 0.05%
  Related Substances: SP4: 2.13%
  Related Substances: SP6: 0.21%
  Related Substances: Total: 2.68%
  Related Substances: α-Decitabine: 0.02%
[4]; 4 hr
  Related Substances: 5-Azacytosine: 0.03%
  Related Substances: H-unk (Highest Unknown Impurity): 0.05%
  Related Substances: SP1: 0.03%
  Related Substances: SP2: 0.04%
  Related Substances: SP3: 0.05%
  Related Substances: SP4: 1.71%
  Related Substances: SP6: 0.95%
  Related Substances: Total: 3.07%
  Related Substances: α-Decitabine: 0.01%
[4]; Initial
  Related Substances: 5-Azacytosine: 0.03%
  Related Substances: H-unk (Highest Unknown Impurity): 0.05%
  Related Substances: SP1: 0.03%
  Related Substances: SP2: 0.01%
  Related Substances: SP3: 0.06%
  Related Substances: SP4: 0.35%
  Related Substances: SP6: 0.04%
  Related Substances: Total: 0.70%
[5]; 5% DMSO + 10% Ethanol + 20% Tertiary-butanol + buffer
  Freezing Point of bulk solution: −8 to −10 °C
[5]; 5% DMSO +10% Ethanol + buffer
  Freezing Point of bulk solution: −5 °C
[5]; 5% DMSO + 15% Ethanol + buffer
  Freezing Point of bulk solution: −6 to −9 °C
[5]; Acetonitrile 5%
  Freezing Point of bulk solution: −2 to −3 °C
[5]; Acetonitrile 10%
  Freezing Point of bulk solution: −3 to −4 °C
[5]; Acetonitrile 15%
  Freezing Point of bulk solution: −4 to −6 °C
[5]; Acetonitrile 20%
  Freezing Point of bulk solution: −8 °C
[5]; DMSO 1%
  Freezing Point of bulk solution: −0.5 °C
[5]; DMSO 2%
  Freezing Point of bulk solution: −0.8 °C
[5]; DMSO 5%
  Freezing Point of bulk solution: −1.6 °C
[5]; DMSO 10%
  Freezing Point of bulk solution: −3.0 °C
[5]; DMSO 15%
  Freezing Point of bulk solution: −5.5 °C
[5]; DMSO 20%
  Freezing Point of bulk solution: −13.9 °C
[5]; DMSO 30%
  Freezing Point of bulk solution: −16.0 °C
[5]; Ethanol 1%
  Freezing Point of bulk solution: −0.5 °C
[5]; Ethanol 2%
  Freezing Point of bulk solution: −0.7 °C
[5]; Ethanol 5%
  Freezing Point of bulk solution: −2.0 °C
[5]; Ethanol 10%
  Freezing Point of bulk solution: −2.5 °C
[5]; Ethanol 15%
  Freezing Point of bulk solution: −6.1 °C
[5]; Ethanol 20%
  Freezing Point of bulk solution: −13.8 °C
[5]; Ethanol 30%
  Freezing Point of bulk solution: −14.3 °C
[5]; Tertiary-butanol 1%
  Freezing Point of bulk solution: −0.1 °C
[5]; Tertiary-butanol 2%
  Freezing Point of bulk solution: −1.0 °C
[5]; Tertiary-butanol 5%
  Freezing Point of bulk solution: −2.5 °C
[5]; Tertiary-butanol 10%
  Freezing Point of bulk solution: −4.3 °C
[5]; Tertiary-butanol 15%
  Freezing Point of bulk solution: −6.0 °C
[5]; Tertiary-butanol 20%
  Freezing Point of bulk solution: −9.3 °C
[5]; Tertiary-butanol 30%
  Freezing Point of bulk solution: −12.9 °C
[5]; n-butanol
  Freezing Point of bulk solution: Restricted Miscibility
